ChEMBL document CHEMBL1127385, “Synthesis and diuretic activity of alkyl- and arylguanidine analogs of N,N'-dicyclohexyl-4-morpholinecarboxamidine in rats and dogs” (J Med Chem, 1994)

What was measured:
Rattus norvegicus [1] = assay: Total electrolytic excretion of chlorine in urine of rats after peroral administration of 24.9 uM/Kg of drug; format: ADME, organism-based; conditions: in vivo, po
Rattus norvegicus [2] = assay: Ratio of Total electrolytic excretion of sodium and potassium in urine of rats after peroral administration of 74.8 uM/Kg of drug; format: ADME, organism-based; conditions: in vivo, po
Rattus norvegicus [3] = assay: Ratio of Total electrolytic excretion of sodium and potassium in urine of rats after peroral administration of 249 uM/Kg of drug; format: ADME, organism-based; conditions: in vivo, po
Rattus norvegicus [4] = assay: Tested for the diuretic activity by measuring the urinary volume after peroral administering 74.8 uM/Kg of drug in rats; format: ADME, organism-based, Urine; conditions: in vivo, po
Rattus norvegicus [5] = assay: Total electrolytic excretion of chlorine in urine of rats after peroral administration of 74.8 uM/Kg of drug; format: ADME, organism-based; conditions: in vivo, po
Rattus norvegicus [6] = assay: Tested for the diuretic activity by measuring the urinary volume after peroral administering 249 uM/Kg of drug in rats; format: ADME, organism-based, Urine; conditions: in vivo, po
Rattus norvegicus [7] = assay: Total electrolytic excretion of sodium in urine of rats after peroral administration of 249 uM/Kg of drug; format: ADME, organism-based; conditions: in vivo, po
Rattus norvegicus [8] = assay: Total electrolytic excretion of sodium in urine of rats after peroral administration of 74.8 uM/Kg of drug; format: ADME, organism-based; conditions: in vivo, po
Canis familiaris [9] = assay: Tested for the diuretic activity by measuring the urinary volume after intravenous administering 2.49 uM/Kg of drug in dogs; format: ADME, organism-based, Canis lupus familiaris, Urine; conditions: dog, in vivo
Canis familiaris [10] = assay: Total electrolytic excretion of potassium in urine of dogs after intravenous administration of 2.49 uM/Kg of drug; format: ADME, organism-based, Canis lupus familiaris; conditions: dog, in vivo
Rattus norvegicus [11] = assay: Total electrolytic excretion of sodium in urine of rats after peroral administration of 24.9 uM/Kg of drug; format: ADME, organism-based; conditions: in vivo, po
Canis familiaris [12] = assay: Total electrolytic excretion of chlorine in urine of dogs after intravenous administration of 2.49 uM/Kg of drug; format: ADME, organism-based, Canis lupus familiaris; conditions: dog, in vivo
Rattus norvegicus [13] = assay: Total electrolytic excretion of potassium in urine of rats after peroral administration of 74.8 uM/Kg of drug; format: ADME, organism-based; conditions: in vivo, po
Rattus norvegicus [14] = assay: Ratio of Total electrolytic excretion of sodium and potassium in urine of rats after peroral administration of 24.9 uM/Kg of drug; format: ADME, organism-based; conditions: in vivo, po
Rattus norvegicus [15] = assay: Tested for the diuretic activity by measuring the urinary volume after peroral administering 24.9 uM/Kg of drug in rats; format: ADME, organism-based, Urine; conditions: in vivo, po
Rattus norvegicus [16] = assay: Total electrolytic excretion of potassium in urine of rats after peroral administration of 249 uM/Kg of drug; format: ADME, organism-based; conditions: in vivo, po
Rattus norvegicus [17] = assay: Total electrolytic excretion of chlorine in urine of rats after peroral administration of 249 uM/Kg of drug; format: ADME, organism-based; conditions: in vivo, po
Rattus norvegicus [18] = assay: Ratio of Total electrolytic excretion of sodium and potassium in urine of rats after intravenous administration of 2.49 uM/Kg of drug; format: ADME, organism-based; conditions: in vivo
Rattus norvegicus [19] = assay: Total electrolytic excretion of potassium in urine of rats after peroral administration of 24.9 uM/Kg of drug; format: ADME, organism-based; conditions: in vivo, po
Canis familiaris [20] = assay: Total electrolytic excretion of sodium in urine of dogs after intravenous administration of 2.49 uM/Kg of drug; format: ADME, organism-based, Canis lupus familiaris; conditions: dog, in vivo

CCOC(=O)N1CCN(/C(=N\C2CCCCC2)NC2CCCCC2)CC1
Excretion Cl- (Rattus norvegicus [1]): 0.98 m equiv | Ratio (Rattus norvegicus [2]): 4.1 | Ratio (Rattus norvegicus [3]): 4 | V (Rattus norvegicus [4]): 8.3 mL | Excretion Cl- (Rattus norvegicus [5]): 1.38 m equiv | V (Rattus norvegicus [6]): 10.8 mL | Excretion Na+ (Rattus norvegicus [7]): 1.67 m equiv | Excretion Na+ (Rattus norvegicus [8]): 1.35 m equiv | V (Canis familiaris [9]): 51 mL | Excretion K+ (Canis familiaris [10]): 2 m equiv | Excretion Na+ (Rattus norvegicus [11]): 0.87 m equiv | Excretion Cl- (Canis familiaris [12]): 5.4 m equiv | Excretion K+ (Rattus norvegicus [13]): 0.33 m equiv | Ratio (Rattus norvegicus [14]): 3 | V (Rattus norvegicus [15]): 5.3 mL | Excretion K+ (Rattus norvegicus [16]): 0.42 m equiv | Excretion Cl- (Rattus norvegicus [17]): 1.7 m equiv | Ratio (Rattus norvegicus [18]): 4.8 | Excretion K+ (Rattus norvegicus [19]): 0.29 m equiv | Excretion Na+ (Canis familiaris [20]): 8.3 m equiv
